16 compounds from patent publication US10653688B2, “6-(6-membered heteroaryl and aryl)isoquinolin-3-yl carboxamides and preparation and use thereof” (Samumed, LLC, priority 2017, dated 2020) can be followed below.

SMILES strings stand for the structures. Read-outs that look alike come from different tables or passages of the source.

The test system of assay [1] is Wnt activity (SW480 colon carcinoma cells stably expressing the Sp5-Luc reporter gene). The assay can be described thus: Wnt activity screening assay (Sp5-Luc reporter gene assay). Format: cell-based, human. To be noted: Homo sapiens; for EC50: 36 to 48 hours; for inhibition at 10 µM: read-out: percent inhibition at 10 μM (given for EC50 >10 μM), 10 μM. The method, boiled down: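 EC50 values come from a variable-slope four-parameter fit of luminescence normalized to DMSO-only wells. The read-out follows 36–48 h incubation at 37 °C, 5% CO2, in DMEM containing 1% fetal bovine serum. Cells are hygromycin-selected SW480 stably expressing firefly luciferase under a Wnt-responsive Sp5 promoter (eight TCF/LEF sites).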
(In general: Reporter assays use an easily measured gene product as a stand-in for the process of interest.)

Another assay concerns the target recombinant GSK3β kinase (Homo sapiens (Human), UniProt P49841). Put plainly: GSK3β kinase assay (Ser/Thr 09 peptide Z-lyte, FRET).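 Also: FRET read-out as coumarin over fluorescein emission ratio, compounds incubated one hour at room temperature, IC50 from dose-response curve fit.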 Format: biochemical.
Assay [2] deals with Tau phosphorylation at Ser396 (pSer396) in SH-SY5Y cells. The assay can be described thus: Tau phosphorylation at Ser396 (pSer396) cell assay, ELISA/western blot. The format is cell-based, human. To be noted: Homo sapiens; SH-SY5Y cells, overnight (16-18 h); read-out: pSer396 Tau EC50. A general note: In an ELISA, binding on a coated surface is turned into a signal by an enzyme label.

Assay [3] has as its system LL29 cells (primary human fibroblasts derived from IPF patients), α-smooth muscle actin. Put plainly: Inhibition of fibrotic process: TGF-β1-treated primary human fibroblasts, αSMA staining.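 As to all read-outs here: controls were TGF-β1-stimulated wells with DMSO vehicle as the positive reference and cells given DMSO alone as the negative reference.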 Format: cell-based. To be noted: Homo sapiens, Fibroblast; for EC50: 96 h, TGF-β1 20 ng/mL, 4 days, % cells positive for αSMA; for inhibition at 10 µM: read-out: percent inhibition at 10 μM (given for EC50 >10 μM), TGF-β1, αSMA, 10 μM.
Experimental: Representative compounds were screened using primary human fibroblasts (derived from IPF patients) treated with TGF-β1 to determine their ability to inhibit the fibrotic process.
Human Fibroblast Cell Culture:
Each compound was dissolved in DMSO as a 10 mM stock and used to prepare compound source plates. […] LL29 cells were plated at 1,500 cells/well in 70 μL/well F12 medium supplemented with 1% Fetal Bovine Serum. […] Wells treated with TGF-β1 and containing DMSO were used as positive control, and cells with only DMSO were negative control. Cells were incubated at 37° C. and 5% CO2 for 4 days. Following incubation for 4 days, SYTOX green nucleic acid stain (Life Technologies [Thermo Fisher Scientific]) was added to the wells at a final concentration of 1 μM and incubated at room temperature for 30 min. Cells were then fixed using 4% formaldehyde (Electron Microscopy Sciences), washed 3 times with PBS followed by blocking and permeabilization using 3% Bovine Serum Albumin (BSA; Sigma) and 0.3% Triton X-100 (Sigma) in PBS.

Assay [4] has as its system IL-6 in human peripheral blood mononuclear cells (huPBMCs). The assay can be described thus: IL-6 inhibition in LPS-stimulated human peripheral blood mononuclear cells (HTRF). Format: cell-based. To be noted: Homo sapiens, PBMC; for EC50: LPS 50 ng/mL, 22 hours, IL-6 HTRF; for inhibition at 10 µM: read-out: percent inhibition at 10 μM (given for EC50 >10 μM), LPS, IL-6, 10 μM. The method in brief: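 Compound-treated huPBMCs (1×10e6 cells/mL, 1% FBS-RPMI) were stimulated after 2 h with LPS (50 ng/mL) for another 22 h at 37° C. An anti-IL-6 HTRF pair reported IL-6 as the 665/620 nm ratio; activity relative to DMSO, EC50 by 4-parameter Levenberg-Marquardt fitting, duplicates.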

Assay [5] has as its target recombinant DYRK1A kinase (Homo sapiens (Human), UniProt Q13627). The assay can be described thus: DYRK1A kinase assay (Ser/Thr 18 peptide Z-lyte, FRET).
The subject of assay [6] is pT212Tau in Dyrk1a- and MAPT-overexpressing HEK293T cells. The assay can be described thus: Tau phosphorylation at Threonine 212 (pT212Tau) sandwich ELISA in double transfected cells. To be noted: Homo sapiens, HEK-293T, read-out: Thr212 EC50 (μM).
Experimental: HEK293T cells (transfectable human embryonic kidney cells) were cultured in DMEM medium supplemented with 10% FBS and 1% penicillin/streptomycin.
HEK293T cells were transiently transfected to overexpress Dyrk1a and microtubule-associated protein Tau (MAPT) genes. Specifically, Dyrk1a and MAPT expression vectors were obtained from OriGene (10 μg of each, catalog numbers SC314641 and RC216166, respectively). […] HEK293T cells were seeded at 1.0×10^7 cells in 10 mL per T-75 flask. […] One T-75 flask was designated as a no-vector negative control for pT212Tau signal.
After 4-6 hours of incubation in transfection reagents, transiently double transfected HEK293T cells were dissociated by treatment with trypsin EDTA and seeded at 1.0×10^5 cells in 100 μL per well in 96-well plates. No-vector negative controls were seeded in separate 96-well plates to avoid the risk of the negative control cells picking up the overexpression during incubation.
96-well flat-bottom plates were coated with 100 μL per well anti-HT7 capture antibody (ThermoFisher, MN1000) diluted 1:300 in 1×PBS at 4° C. overnight, with shaking at 500 rpm.
Cells were then lysed with 100 μL 1×RIPA buffer supplemented with phosphatase and protease inhibitors (each diluted to a final 1×). […] V-bottom plates were centrifuged at 4000 rpm, 4° C., for 15 minutes, and 100 μL of lysate supernatant from each well was directly tested for pT212Tau signal by sandwich ELISA.
[7] abbreviates: GSK3β kinase, head says EC50, method says IC50, ATP 46 μM.
The mark [8] stands for this setting: DYRK1A kinase, head says EC50, method says IC50, ATP 30 μM.

recombinant GSK3β kinase, sequence (P49841 whole entry): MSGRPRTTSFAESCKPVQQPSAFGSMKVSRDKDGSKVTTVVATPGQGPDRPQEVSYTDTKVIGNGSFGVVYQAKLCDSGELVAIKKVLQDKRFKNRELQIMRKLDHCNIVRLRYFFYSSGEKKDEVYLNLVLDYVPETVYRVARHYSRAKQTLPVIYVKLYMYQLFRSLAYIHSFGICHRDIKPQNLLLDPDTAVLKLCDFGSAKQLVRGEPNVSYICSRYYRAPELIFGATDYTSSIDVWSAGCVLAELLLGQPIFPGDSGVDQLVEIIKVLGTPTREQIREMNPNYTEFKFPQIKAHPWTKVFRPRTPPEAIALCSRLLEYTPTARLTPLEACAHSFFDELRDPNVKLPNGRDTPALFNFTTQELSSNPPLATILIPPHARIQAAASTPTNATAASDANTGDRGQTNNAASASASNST

`CN1CCC(C(=O)Nc2cc3cc(-c4cccnc4)ccc3cn2)CC1` [Compound 8, 1-Methyl-N-(6-(pyridin-3-yl)isoquinolin-3-yl)piperidine-4-carboxamide]: the EC50 was found to be 1280 nM in assay [1]; 652 nM at recombinant GSK3β kinase (setting [7]); 795 nM in assay [2]; 398 nM in assay [3]; 1970 nM in assay [4]; 2 nM in assay [5] (setting [8]). Further, the concentration for a half-maximal effect (EC50) in assay [6] was found to be 0.019 µM.

Regarding `O=C(CN1CCOCC1)Nc1cc2cc(-c3cccnc3)ccc2cn1` [Compound 10, 2-Morpholino-N-(6-(pyridin-3-yl)isoquinolin-3-yl)acetamide], the EC50 in assay [1] is over 10000 nM; on recombinant GSK3β kinase (setting [7]), 525 nM; in assay [2], 2900 nM; in assay [3], over 10000 nM; in assay [4], over 10000 nM; in assay [5] (setting [8]), 8 nM. Also, in assay [6], the EC50 was 0.046 µM. The inhibition at 10 µM was found to be 15.3% in assay [1], 6.2% in assay [3] and 3.7% in assay [4].

As for `CN1CCN(CC(=O)Nc2cc3cc(-c4cccnc4)ccc3cn2)CC1` [Compound 11, 2-(4-Methylpiperazin-1-yl)-N-(6-(pyridin-3-yl)isoquinolin-3-yl)acetamide], the EC50 was over 10000 nM in assay [1]; 1120 nM on recombinant GSK3β kinase (setting [7]); 5800 nM in assay [2]; 3580 nM in assay [3]; over 10000 nM in assay [4]; 20 nM in assay [5] (setting [8]). In addition, the 50% effective concentration (EC50) in assay [6] was 2.5 µM. The inhibition at 10 µM in assay [1] was 10.8%; in assay [4], 8.5%.

For `CN1CCCN(CC(=O)Nc2cc3cc(-c4cccnc4)ccc3cn2)CC1` [Compound 12, 2-(4-Methyl-1,4-diazepan-1-yl)-N-(6-(pyridin-3-yl)isoquinolin-3-yl) acetamide], the EC50 in assay [1] is over 10000 nM; on recombinant GSK3β kinase (setting [7]), 722 nM; in assay [2], 2300 nM; in assay [3], 1190 nM; in assay [4] it was 9860 nM; in assay [5] (setting [8]), 17 nM. For the same compound, the EC50 in assay [6] was 0.284 µM. In assay [1], the inhibition at 10 µM came out at 39.8%.

As for `Cc1nccn1CC(=O)Nc1cc2cc(-c3cccnc3)ccc2cn1` [Compound 14, 2-(2-Methyl-1H-imidazol-1-yl)-N-(6-(pyridin-3-yl)isoquinolin-3-yl) acetamide], the concentration for a half-maximal effect (EC50) in assay [1] was 3600 nM; on recombinant GSK3β kinase (setting [7]) it was 111 nM; in assay [2], 1600 nM; in assay [3] it was 2240 nM; in assay [4] it was 9030 nM; in assay [5] (setting [8]) it was 7 nM. The EC50 in assay [6] was 0.043 µM.

For `O=C(Cn1ccnc1)Nc1cc2cc(-c3cccnc3)ccc2cn1` [Compound 15, 2-(1H-Imidazol-1-yl)-N-(6-(pyridin-3-yl)isoquinolin-3-yl)acetamide], the EC50 was found to be 3100 nM in assay [1]; 97 nM on recombinant GSK3β kinase (setting [7]); 1100 nM in assay [2]; 1520 nM in assay [3]; 4820 nM in assay [4]; 5 nM in assay [5] (setting [8]). Besides, in assay [6], the EC50 is 0.2 µM.

On to `CN1CCN(C[C@H]2CC[C@H](C(=O)Nc3cc4cc(-c5cncc(F)c5)ccc4cn3)CC2)CC1` [Compound 17, trans-N-(6-(5-Fluoropyridin-3-yl)isoquinolin-3-yl)-4-((4-methylpiperazin-1-yl)methyl)cyclohexane-1-carboxamide], for which the EC50 in assay [1] was determined as 6730 nM; on recombinant GSK3β kinase (setting [7]), 974 nM; in assay [2] it was 4600 nM; in assay [3], 471 nM; in assay [4] it was 9350 nM; in assay [5] (setting [8]), 3 nM. For the same compound, in assay [6], the concentration for a half-maximal effect (EC50) worked out at 0.004 µM.

Regarding `CN1CCC(C(=O)Nc2cc3cc(-c4cncc(F)c4)ccc3cn2)CC1` [Compound 19, N-(6-(5-Fluoropyridin-3-yl)isoquinolin-3-yl)-1-methylpiperidine-4-carboxamide], the concentration giving a half-maximal response (EC50) in assay [1] is over 10000 nM; on recombinant GSK3β kinase, 1800 nM; in assay [2], 9400 nM; in assay [3] it was 1210 nM; in assay [4] it was 9150 nM; in assay [5] it was 10 nM. In addition, in assay [6], the half-maximal effective concentration (EC50) was 0.205 µM. In addition, the inhibition at 10 µM in assay [1] came out at 35.9%.

In the case of `CN1CCN(CC(=O)Nc2cc3cc(-c4ccc(F)nc4)ccc3cn2)CC1` [Compound 21, N-(6-(6-Fluoropyridin-3-yl)isoquinolin-3-yl)-2-(4-methylpiperazin-1-yl) acetamide], the EC50 is over 10000 nM in assay [1]; 3200 nM on recombinant GSK3β kinase (setting [7]); over 10000 nM in assay [2]; 3400 nM in assay [3]; over 10000 nM in assay [4]; 42 nM in assay [5] (setting [8]). Also, the EC50 in assay [6] turned out to be 1.5 µM. Also, the inhibition at 10 µM in assay [1] came out at 5.5%; in assay [4], 6.3%.

Consider `O=C(CCN1CCOCC1)Nc1cc2cc(-c3cncc(F)c3)ccc2cn1` [Compound 23, N-(6-(5-Fluoropyridin-3-yl)isoquinolin-3-yl)-3-morpholinopropanamide], for which the EC50 in assay [1] was over 10000 nM; at recombinant GSK3β kinase, 602 nM; in assay [2], 8500 nM; in assay [3] it was 1630 nM; in assay [4], over 10000 nM; in assay [5], 17 nM. In assay [6], the half-maximal effective concentration (EC50) was over 10 µM. Further, the inhibition at 10 µM in assay [1] was determined as 38.7%; in assay [4] it was 8.6%.

In the case of `COc1cncc(-c2ccc3cnc(NC(=O)C4CCN(C)CC4)cc3c2)c1` [Compound 33, N-(6-(5-Methoxypyridin-3-yl)isoquinolin-3-yl)-1-methylpiperidine-4-carboxamide], the 50% effective concentration (EC50) in assay [1] was found to be 810 nM; at recombinant GSK3β kinase (setting [7]) it was 957 nM; in assay [2], 1450 nM; in assay [3] it was 481 nM; in assay [4], 3650 nM; in assay [5] (setting [8]) it was 4 nM. The EC50 in assay [6] is 0.033 µM.

Regarding `CN1CCC(C(=O)Nc2cc3cc(-c4cncc(N5CCCC5)c4)ccc3cn2)CC1` [Compound 50, 1-Methyl-N-(6-(5-(pyrrolidin-1-yl)pyridin-3-yl)isoquinolin-3-yl)piperidine-4-carboxamide], the 50% effective concentration (EC50) is 312 nM in assay [1]; 725 nM on recombinant GSK3β kinase (setting [7]); over 10000 nM in assay [2]; over 10000 nM in assay [3]; 8950 nM in assay [4]; 25 nM in assay [5] (setting [8]). Moreover, the EC50 in assay [6] is 0.113 µM. Further, the inhibition at 10 µM in assay [3] was 31.1%.

With `O=C(Nc1cc2cc(-c3cncc(CN4CCCC4)c3)ccc2cn1)C1CC1` [Compound 51, N-(6-(5-(Pyrrolidin-1-ylmethyl)pyridin-3-yl)isoquinolin-3-yl) cyclopropanecarboxamide], the concentration giving a half-maximal response (EC50) in assay [1] is 1260 nM; at recombinant GSK3β kinase (setting [7]), 175 nM; in assay [2], 1900 nM; in assay [3], 4230 nM; in assay [4] it was 3000 nM; in assay [5] (setting [8]), 7 nM. The concentration giving a half-maximal response (EC50) in assay [6] stood at 0.047 µM.

Take `O=C(Nc1cc2cc(-c3cncc(CN4CCC(O)CC4)c3)ccc2cn1)C1CC1` [Compound 53, N-(6-(5-((4-Hydroxypiperidin-1-yl)methyl)pyridin-3-yl)isoquinolin-3-yl) cyclopropanecarboxamide]: the half-maximal effective concentration (EC50) in assay [1] was determined as 691 nM; on recombinant GSK3β kinase, 175 nM; in assay [2], 705 nM; in assay [3] it was 3070 nM; in assay [4] it was 3250 nM; in assay [5], 2 nM. In addition, the EC50 in assay [6] was found to be 0.003 µM.

Turning to `CN1CCN(Cc2cncc(-c3ccc4cnc(NC(=O)C5CC5)cc4c3)c2)CC1` [Compound 56, N-(6-(5-((4-Methylpiperazin-1-yl)methyl)pyridin-3-yl)isoquinolin-3-yl) cyclopropanecarboxamide], the EC50 turned out to be 1230 nM in assay [1]; 609 nM at recombinant GSK3β kinase (setting [7]); 4900 nM in assay [2]; 5130 nM in assay [3]; 9500 nM in assay [4]; 5 nM in assay [5] (setting [8]). Moreover, in assay [6], the EC50 is 0.045 µM.

Turning to `O=C(Nc1cc2cc(-c3cncc(CN4CCOCC4)c3)ccc2cn1)C1CC1` [Compound 57, N-(6-(5-(Morpholinomethyl)pyridin-3-yl)isoquinolin-3-yl) cyclopropanecarboxamide], the EC50 in assay [1] worked out at 1140 nM; at recombinant GSK3β kinase (setting [7]) it was 180 nM; in assay [2] it was 2000 nM; in assay [3], 2160 nM; in assay [4], 3800 nM; in assay [5] (setting [8]) it was 4 nM. The EC50 in assay [6] came out at 0.05 µM.

As usually defined, the EC50 is the concentration giving half of the maximal effect. One may read the inhibition as the change of the read-out against control, counted positive when it falls.
